{"source": "patent US9144248B2", "about": "“Cinnamamides as savory flavorings” (SYMRISE AG, priority 2011, dated 2015)", "assay_type_in_all_cases": "in vivo, human", "key": {"[1]": {"experiment": "Profiling of cinnamides in American beef extract base together with monosodium glutamate (enhancing effect), trained panel, descriptors scored 0-9", "conditions": "for enhancement of the monosodium glutamate effect: sample (iv) versus sample (ii) base + 0.05% MSG, FIG. 3: 20 ppm + 0.0025% monosodium glutamate in beef extract base", "experimental": "An American beef extract as the base, a corresponding sauce mixed with monosodium glutamate, a corresponding sauce mixed with the cinnamide and a corresponding base mixed with monosodium glutamate were in each case administered blind individually to 15-25 trained panelists for profiling. Using the descriptors previously decided upon by discussion (mouth-fill, salty, metallic, meaty, bitter, mouth-watering, barbecued-roasted, sweet, sour, lingering) the strength of these was assessed on a scale of 0 (imperceptible) through 9 (very strong). The individual results of the panelists were averaged. […]\nHere again (i) a beef extract as the base is compared with (ii) such a base with the addition of 0.05% monosodium glutamate, (iii) such a base with the addition of 0.0025% monosodium glutamate and (iv) such a base with the addition of 0.0025% monosodium glutamate and 5 ppm rubescenamine (3). […]\nThe test subjects assessed the strength of the stated flavors by giving a score on a scale of 0 (imperceptible) through 9 (very strong corresponding taste). The mean values of the respective scorings are shown. […]"}, "[2]": {"experiment": "Profiling of cinnamides in a complex base (American beef extract) by 15-25 trained panelists, descriptors scored 0-9, compared with MSG", "conditions": "for umami taste character compared with monosodium glutamate: comparison base + 0.05 wt. % MSG", "experimental": "An American beef extract as the base, a corresponding base mixed with monosodium glutamate and a corresponding base mixed with the cinnamide were in each case administered blind individually to 15-25 trained panelists for profiling. Using the descriptors previously decided upon by discussion (mouth-fill, salty, metallic, meaty, bitter, mouth-watering, barbecued-roasted, sweet, sour, lingering) the strength of these was assessed on a scale of 0 (imperceptible) through 9 (very strong). The individual results of the panelists were averaged.\nIn the spider chart attached as FIG. 1 the profile of an American beef extract as the base (i) is compared with such a base with the addition of 10 ppm (iii) or 50 ppm rubemamine ([…]) (iv) and with a sample (ii) of such a base with the addition of 0.05 wt. % MSG (monosodium glutamate).\nIn the spider chart attached as FIG. 2 the profile of an American beef extract as the base (i) is compared with such a base with the addition of 5 ppm (iii) or 10 ppm rubescenamine (compound (3)) (iv) and with a sample (ii) of such a base with the addition of 0.05 wt. % MSG (monosodium glutamate).\nThe taste of a 0.5% American beef extract as base (i) was compared in a tasting by a panel of trained test subjects with the taste of such a base with 10 ppm (iii) or 50 ppm (iv) rubemamine (1) added, and such a base with 0.05 wt. % MSG added (ii).\nThe test subjects assessed the strength of the stated flavors by giving a score on a scale of 0 (imperceptible) through 9 (very strong corresponding taste). The mean values of the respective scorings are shown.\nThe taste of a 0.5% American beef extract as base (i) was compared in a tasting by a panel of trained test subjects with the taste of such a base with 5 ppm (iii) or 10 ppm (iv) rubescenamine (3) added, and such a base with 0.05 wt. % MSG added (ii)."}, "[3]": {"experiment": "Simple profiling of cinnamides dissolved in water, tasting by a group of experts with open discussion", "experimental": "The compounds were dissolved in water in the stated concentration and assessed by a group of experts by tasting with open discussion."}, "[4]": {"conditions": "5 ppm + 0.0025% monosodium glutamate in beef extract base, listed as rubescenamine (3)"}}, "note": "“Also recorded” adds a separate entry of the source.", "data": [{"smiles": "COc1ccc(/C=C/C(=O)NCCc2ccc3c(c2)OCO3)cc1OC", "note": "[Compound (3), rubescenamine]", "values": [{"measurement": "enhancement of the monosodium glutamate effect: sample (iv) versus sample (iii) base + 0.0025% MSG, FIG. 4", "setting": "[1]; 5 ppm + 0.0025% monosodium glutamate in beef extract base", "value": "in respect of virtually all parameters was assessed as stronger than sample (iii)"}, {"measurement": "\"salty\" parameter: sample (iv) versus sample (ii) base + 0.05% MSG, FIG. 4", "setting": "[1]; [4]", "value": "assessed similarly to sample (ii)"}, {"measurement": "enhancement of the monosodium glutamate effect: sample (iv) versus sample (iii) base + 0.0025% MSG, FIG. 4", "setting": "[1]; [4]", "value": "assessed more strongly on virtually all parameters than sample (iii)"}, {"measurement": "umami taste character compared with monosodium glutamate", "setting": "[2]; 5 mg/kg test concentration in American beef extract base", "value": "umami taste that is very similar to that of monosodium glutamate"}, {"measurement": "taste profile, strength of descriptors (scale 0-9), FIG. 2 curve iii", "setting": "[2]; 5 ppm in American beef extract base", "value": "strong effect"}, {"measurement": "taste profile, strength of descriptors (scale 0-9), FIG. 2 curve iv, versus sample (ii) base + 0.05 wt. % MSG", "setting": "[2]; 10 ppm in American beef extract base", "value": "for most descriptors is able to achieve a similarly strong assessment to sample (ii)"}, {"measurement": "Taste profile (concentration in mg/kg)", "setting": "[3]; 10 mg/kg", "value": "Umami, otherwise neutral (10 mg/kg)"}]}, {"smiles": "N[C@@H](CCC(=O)O)C(=O)[O-].[Na+]", "note": "[monosodium glutamate, reference compound]", "values": [{"measurement": "taste profile of sample (iii) versus base (i) without addition, FIG. 3", "setting": "[1]; 0.0025% monosodium glutamate alone in beef extract base", "value": "perceived as less strong than the sample (i) without the addition; also recorded: perceived only slightly less strongly than sample (i) without the addition"}]}, {"smiles": "COc1ccc(/C=C/C(=O)NCCc2ccc(OC)c(OC)c2)cc1OC", "note": "[Compound (1), rubemamine]", "values": [{"measurement": "enhancement of the monosodium glutamate effect: sample (iv) versus sample (ii) base + 0.05% MSG, FIG. 3", "setting": "[1]", "value": "hardly distinguishable from one another other than a slightly lower sweetness"}, {"measurement": "enhancement of the monosodium glutamate effect: sample (iv) versus sample (ii) base + 0.05% MSG, FIG. 3", "setting": "[1]; listed as rubemamine (1)", "value": "virtually indistinguishable"}, {"measurement": "umami taste character compared with monosodium glutamate", "setting": "[2]; 10 mg/kg test concentration in American beef extract base", "value": "umami taste that is very similar to that of monosodium glutamate"}, {"measurement": "Taste profile (concentration in mg/kg)", "setting": "[3]; 10 mg/kg", "value": "Umami (10 mg/kg)"}]}, {"smiles": "O=C(/C=C/c1ccccc1)NCCc1ccc2c(c1)OCO2", "note": "[Compound (9), zanthomamine]", "values": [{"measurement": "enhancement of the monosodium glutamate effect: sample (iv) versus sample (iii) base + 0.0025% MSG, FIG. 5", "setting": "[1]; 50 ppm + 0.0025% monosodium glutamate in beef extract base", "value": "assessed more strongly on virtually all parameters than sample (iii)"}, {"measurement": "Taste profile (concentration in mg/kg)", "setting": "[3]; 50 mg/kg", "value": "Somewhat delayed onset of umami effect (50 mg/kg)"}]}]}
